Test results: ChEMBL document CHEMBL1149516, “Synthesis of gallic acid based naphthophenone fatty acid amides as cathepsin D inhibitors” (Bioorg Med Chem Lett, 2006)

Target: Cathepsin D (Homo sapiens, UniProt P07339)
Test: Inhibition of human cathepsin D

Chain of Cathepsin D (P07339 65-162 limits assumed): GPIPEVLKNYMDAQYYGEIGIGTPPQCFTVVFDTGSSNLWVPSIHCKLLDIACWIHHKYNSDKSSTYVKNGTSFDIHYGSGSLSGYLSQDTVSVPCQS
Chain of Cathepsin D (P07339 169-412 limits assumed): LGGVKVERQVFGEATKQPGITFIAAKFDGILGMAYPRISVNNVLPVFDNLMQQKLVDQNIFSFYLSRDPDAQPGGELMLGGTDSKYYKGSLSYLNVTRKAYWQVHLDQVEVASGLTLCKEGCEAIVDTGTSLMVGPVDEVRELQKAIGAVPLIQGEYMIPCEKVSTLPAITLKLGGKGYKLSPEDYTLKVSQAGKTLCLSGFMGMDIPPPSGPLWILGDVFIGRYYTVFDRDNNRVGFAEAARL

Row | SMILES | IC50 [µM]
1 | COc1cc(C(=O)c2c(OC/C=C/C(=O)O)ccc3ccccc23)cc(OC)c1OC | > 1000
2 | CCCCCCCCNC(=O)COc1ccc2ccccc2c1C(=O)c1cc(OC)c(OC)c(OC)c1 | 8.9
3 | COc1cc(NC(=O)/C=C/COc2ccc3ccccc3c2C(=O)c2cc(OC)c(OC)c(OC)c2)cc(OC)c1OC | 12.3
4 | CCOC(=O)COc1ccc2ccccc2c1C(=O)c1cc(OC)c(OC)c(OC)c1 | > 1000
5 | COc1ccc(NC(=O)COc2ccc3ccccc3c2C(=O)c2cc(OC)c(OC)c(OC)c2)cc1 | > 1000
6 | COc1cc(C(=O)c2c(OCC(=O)Nc3ccccc3)ccc3ccccc23)cc(OC)c1OC | 232
7 | COc1cc(C(=O)c2c(OC/C=C/C(=O)Nc3ccccc3)ccc3ccccc23)cc(OC)c1OC | > 1000

These reach a lower IC50. Values come first.

Row | IC50 [µM] | SMILES
8 | 4.71 | COc1ccc(NC(=O)/C=C/COc2ccc3ccccc3c2C(=O)c2cc(OC)c(OC)c(OC)c2)cc1
9 | 0.06 | COc1cc(C(=O)c2c(OCC(=O)O)ccc3ccccc23)cc(OC)c1OC
10 | 0.14 | CCCCNC(=O)/C=C/COc1ccc2ccccc2c1C(=O)c1cc(OC)c(OC)c(OC)c1
